From PubChem BioAssay (NCI)
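Values below derive from 48-hour exposures of cells grown in 96-well plates, with endpoints linearly interpolated between the two concentrations bracketing the appropriate inhibition level. The concentration for 50% growth inhibition is given as GI50. TGI is the concentration that stops growth completely.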

Tests used:
Experiment in all cases: NCI-60 cell line screen, 48 h
786-0 renal = system: 786-0 renal
A498 renal = system: A498 renal
A549 NSCLC = system: A549 NSCLC
ACHN renal = system: ACHN renal
BT-549 breast = system: BT-549 breast
CAKI-1 renal = system: CAKI-1 renal
CCRF-CEM leukemia = system: CCRF-CEM leukemia
COLO 205 colon = system: COLO 205 colon
DU-145 prostate = system: DU-145 prostate
EKVX NSCLC = system: EKVX NSCLC
HCC-2998 colon = system: HCC-2998 colon
HCT-116 colon = system: HCT-116 colon
HCT-15 colon = system: HCT-15 colon
HL-60(TB) leukemia = system: HL-60(TB) leukemia
HOP-62 NSCLC = system: HOP-62 NSCLC
HOP-92 NSCLC = system: HOP-92 NSCLC
HS 578T breast = system: HS 578T breast
HT29 colon = system: HT29 colon
IGROV1 ovarian = system: IGROV1 ovarian
K-562 leukemia = system: K-562 leukemia
KM12 colon = system: KM12 colon
LOX IMVI melanoma = system: LOX IMVI melanoma
M14 melanoma = system: M14 melanoma
MALME-3M melanoma = system: MALME-3M melanoma
MCF7 breast = system: MCF7 breast
MDA-MB-231 breast = system: MDA-MB-231 breast
MDA-MB-435 = system: MDA-MB-435
MDA-MB-468 breast = system: MDA-MB-468 breast
MOLT-4 leukemia = system: MOLT-4 leukemia
NCI-H226 lung = system: NCI-H226 lung
NCI-H23 lung = system: NCI-H23 lung
NCI-H460 lung = system: NCI-H460 lung
NCI-H522 lung = system: NCI-H522 lung
NCI/ADR-RES ovarian = system: NCI/ADR-RES ovarian
OVCAR-3 ovarian = system: OVCAR-3 ovarian
OVCAR-4 ovarian = system: OVCAR-4 ovarian
OVCAR-5 ovarian = system: OVCAR-5 ovarian
OVCAR-8 ovarian = system: OVCAR-8 ovarian
PC-3 prostate = system: PC-3 prostate
RXF 393 renal = system: RXF 393 renal
SF-268 CNS = system: SF-268 CNS
SF-295 CNS = system: SF-295 CNS
SF-539 CNS = system: SF-539 CNS
SK-MEL-2 melanoma = system: SK-MEL-2 melanoma
SK-MEL-28 melanoma = system: SK-MEL-28 melanoma
SK-MEL-5 melanoma = system: SK-MEL-5 melanoma
SK-OV-3 ovarian = system: SK-OV-3 ovarian
SN12C renal = system: SN12C renal
SNB-19 CNS = system: SNB-19 CNS
SNB-75 CNS = system: SNB-75 CNS
SR leukemia = system: SR leukemia
SW-620 colon = system: SW-620 colon
T-47D breast = system: T-47D breast
TK-10 renal = system: TK-10 renal
U251 CNS = system: U251 CNS
UACC-257 melanoma = system: UACC-257 melanoma
UACC-62 melanoma = system: UACC-62 melanoma
UO-31 renal = system: UO-31 renal

Work on CCCn1c(=O)c2[nH]c(-c3ccc(OCc4nc5ccccc5[nH]4)cc3)nc2n(CCC)c1=O yielded a GI50 (786-0 renal) of 2830 nM, a TGI (786-0 renal) of 10.6 µM and a GI50 (A498 renal) of 14.3 µM. The TGI (A498 renal) was 32.3 µM, the GI50 (A549 NSCLC) was 5.92 µM and the TGI (A549 NSCLC) was over 100 µM. It also gave a GI50 (ACHN renal) of 5 µM, a TGI (ACHN renal) of 24.9 µM and a GI50 (BT-549 breast) of 8.41 µM. The TGI (BT-549 breast) was 45.5 µM, the GI50 (CAKI-1 renal) was 2950 nM and the TGI (CAKI-1 renal) was 11.9 µM. For the same compound, the GI50 (CCRF-CEM leukemia) was over 100 µM, the TGI (CCRF-CEM leukemia) was over 100 µM and the GI50 (COLO 205 colon) was over 100 µM. The TGI (COLO 205 colon) was over 100 µM, the TGI (DU-145 prostate) was over 100 µM and the GI50 (EKVX NSCLC) was 23.5 µM. The TGI (EKVX NSCLC) was over 100 µM, the GI50 (HCC-2998 colon) was 11.9 µM and the TGI (HCC-2998 colon) was over 100 µM. The GI50 (HCT-116 colon) was 3.94 µM, the TGI (HCT-116 colon) was over 100 µM and the GI50 (HCT-15 colon) was 31.9 µM. For the same compound, the TGI (HCT-15 colon) was over 100 µM, the GI50 (HL-60(TB) leukemia) was over 100 µM and the TGI (HL-60(TB) leukemia) was over 100 µM. For the same compound, the GI50 (HOP-62 NSCLC) was 8.39 µM, the TGI (HOP-62 NSCLC) was 24.3 µM and the GI50 (HOP-92 NSCLC) was 5.18 µM. It also gave a TGI (HOP-92 NSCLC) of 25.3 µM, a GI50 (HS 578T breast) of 2300 nM and a TGI (HS 578T breast) of 7.76 µM. For the same compound, the GI50 (HT29 colon) was 13.2 µM, the TGI (HT29 colon) was over 100 µM and the GI50 (IGROV1 ovarian) was 15.3 µM. The TGI (IGROV1 ovarian) was 42.8 µM, the GI50 (K-562 leukemia) was over 100 µM and the TGI (K-562 leukemia) was over 100 µM. It also gave a GI50 (KM12 colon) of over 100 µM, a TGI (KM12 colon) of over 100 µM and a GI50 (LOX IMVI melanoma) of 3.47 µM. For the same compound, the TGI (LOX IMVI melanoma) was 14.7 µM, the GI50 (M14 melanoma) was 26.2 µM and the TGI (M14 melanoma) was over 100 µM. For the same compound, the GI50 (MALME-3M melanoma) was 3.43 µM, the TGI (MALME-3M melanoma) was 16.4 µM and the GI50 (MCF7 breast) was 3.32 µM. For the same compound, the TGI (MCF7 breast) was 18.6 µM, the GI50 (MDA-MB-231 breast) was 3.37 µM and the TGI (MDA-MB-231 breast) was 12.6 µM. It also gave a GI50 (MDA-MB-435) of 13 µM, a TGI (MDA-MB-435) of over 100 µM and a GI50 (MDA-MB-468 breast) of 3.13 µM. The TGI (MDA-MB-468 breast) was 16.1 µM, the GI50 (MOLT-4 leukemia) was over 100 µM and the TGI (MOLT-4 leukemia) was over 100 µM. It also gave a GI50 (NCI-H226 lung) of 2400 nM, a TGI (NCI-H226 lung) of 7.25 µM and a GI50 (NCI-H23 lung) of 5.95 µM. It also gave a TGI (NCI-H23 lung) of 18.1 µM, a GI50 (NCI-H460 lung) of 3.7 µM and a TGI (NCI-H460 lung) of 15.1 µM. The GI50 (NCI-H522 lung) was 11.3 µM, the TGI (NCI-H522 lung) was 34.3 µM and the GI50 (NCI/ADR-RES ovarian) was 19.2 µM. The TGI (NCI/ADR-RES ovarian) was over 100 µM, the GI50 (OVCAR-3 ovarian) was 5.46 µM and the TGI (OVCAR-3 ovarian) was 23.4 µM. The GI50 (OVCAR-4 ovarian) was 2990 nM, the TGI (OVCAR-4 ovarian) was 53 µM and the GI50 (OVCAR-5 ovarian) was 46.5 µM. For the same compound, the TGI (OVCAR-5 ovarian) was over 100 µM, the GI50 (OVCAR-8 ovarian) was 8.28 µM and the TGI (OVCAR-8 ovarian) was 45.4 µM. The GI50 (PC-3 prostate) was 17.6 µM, the TGI (PC-3 prostate) was over 100 µM and the GI50 (RXF 393 renal) was 2060 nM. It also gave a TGI (RXF 393 renal) of 6.94 µM, a GI50 (SF-268 CNS) of 9.2 µM and a TGI (SF-268 CNS) of 38.8 µM. It also gave a GI50 (SF-295 CNS) of 3.04 µM, a TGI (SF-295 CNS) of 13.3 µM and a GI50 (SF-539 CNS) of 2120 nM. It also gave a TGI (SF-539 CNS) of 5.25 µM, a GI50 (SK-MEL-2 melanoma) of 17.6 µM and a TGI (SK-MEL-2 melanoma) of 34.4 µM. For the same compound, the GI50 (SK-MEL-28 melanoma) was 33.5 µM, the TGI (SK-MEL-28 melanoma) was over 100 µM and the GI50 (SK-MEL-5 melanoma) was 4.05 µM. For the same compound, the TGI (SK-MEL-5 melanoma) was 28 µM, the GI50 (SK-OV-3 ovarian) was 15 µM and the TGI (SK-OV-3 ovarian) was 32 µM. It also gave a GI50 (SN12C renal) of 9.67 µM, a TGI (SN12C renal) of 45.7 µM and a GI50 (SNB-19 CNS) of 13.9 µM. It also gave a TGI (SNB-19 CNS) of 33.1 µM, a GI50 (SNB-75 CNS) of 1630 nM and a TGI (SNB-75 CNS) of 5.21 µM. The GI50 (SR leukemia) was over 100 µM, the TGI (SR leukemia) was over 100 µM and the GI50 (SW-620 colon) was 18 µM. The TGI (SW-620 colon) was over 100 µM, the GI50 (T-47D breast) was 27.9 µM and the TGI (T-47D breast) was over 100 µM. For the same compound, the GI50 (TK-10 renal) was 6.89 µM, the TGI (TK-10 renal) was 22.2 µM and the GI50 (U251 CNS) was 3.83 µM. It also gave a TGI (U251 CNS) of 18.4 µM, a GI50 (UACC-257 melanoma) of 48 µM and a TGI (UACC-257 melanoma) of over 100 µM. It also gave a GI50 (UACC-62 melanoma) of 12 µM, a TGI (UACC-62 melanoma) of 28.8 µM and a GI50 (UO-31 renal) of 14.5 µM. The TGI (UO-31 renal) was 43.4 µM.
